In patent US20230134843A1, “TREATMENT OF STEM CELL DEFICIENCY” (OSPEDALE SAN RAFFAELE S.R.L., priority 2020, published 2023):
“Also recorded” adds a separate entry of the source.

How the values were obtained:
[1] = system: goblet cells; test: Goblet cell identification by PAS staining in the cornea, stem cell deficiency model; type: in vivo, mice; settings: Fosaprepitant 1 mg/mL (FOSA 1); p<0.05
Excerpt: Eight-week-old male mice C57BL6/N (Charles River, Calco, Italy) (WT mice, n=18) and Tac1-deficient B6.Cg-Tac1tm1Bbm/J (Jackson Laboratories, Bar Harbor, Me., USA) (TAC1-KO mice, n=18) were used in all experiments. TAC1-KO mice are homozygous null for the Tac1 gene. […] The corneal thickness and transparency as well as the corneal nerve length are similar to C57BL/6 mice [Barbariga M, Rabiolo A, Fonteyne P, Bignami F, Rama P, Ferrari G. The effect of aging on nerve morphology and substance P expression in mouse and human corneas. Investig Ophthalmol Vis Sci 2018; 59:5329-35. https://doi.org/10.1167/iovs.18-24707.]. Each animal was anesthetized with an intraperitoneal injection of tribromoethanol (250 mg/kg) and a topical anesthetic was applied to their ocular surface prior to the surgical procedure. […]
To identify the presence of goblet cells, periodic acid Schiff (PAS) staining was performed following the same experimental protocol previously described [Ferrari G, Bignami F, Giacomini C, Franchini S, Rama P. Safety and efficacy of topical infliximab in a mouse model of ocular surface scarring. […] The number of PAS+ cells was quantified using Image J software (National Institutes of Health, Bethesda, Md., USA), and the results were expressed as PAS+ cells per section.

[2] = system: CD3+ cells; test: CD3+ cell (T cell) infiltration by immunohistochemistry, acute GVHD mouse model; type: in vivo, mice; settings: Fosaprepitant 10 mg/mL topically six times a day; day 29; p<0.001
Method: 10-week-old male BALB/C and C57BL/6N mice (Charles River Laboratory, Lecco, Italy) were used for all the experiments (n=5/each group). All mice were free from ocular surface disease at baseline. The housing conditions were controlled (temperature 22° C., light from 07:00-19:00, humidity 50%-60%), and fresh food and water were freely available. The animals were monitored 3 times per week for 28 days post-transplantation for in vivo slit-lamp microscopy imaging, ocular surface score and systemic GVHD score (FIG. 11A). Carbon dioxide inhalation and subsequent cervical dislocation were applied to euthanize the animals. All the experiments were approved by the Animal Care and Use Committee of the IRCCS San Raffaele Scientific Institute, in accordance with the ARVO Statement for the Use of Animals in Ophthalmic and Vision Research.
Allogenic BMT was conducted using the C57BL/6N and BALB/c mice as transplant donors and recipients, respectively. The recipient mice received total body irradiation (TBI) (900 cGy divided in two fractions) from a Cs source 1 day before the transplantation. The donor C57BL/6N mice were sacrificed on dry ice and they femur and spleen were harvested. The bones were gently crushed manually using a sterile stick, and bone marrow (BM) cells were released by mixing the fragments of bones with RPMI. The suspension of BM cells was filtered to remove the impurities inside. The spleens were also gently crushed into a cell suspension and filtered. Inventors suspended the BM cells and splenic cells with RPMI and adjusted the density of cells to 1×10^6/[…] and 2×10^6/[…], respectively. […]
Mice were sacrificed 28 days after BM transplantation (Day 29 post irradiation) by carbon dioxide inhalation. […] Following three washes with PBS-T, sections were incubated in anti-goat HRP for 15 minutes and then detected with a goat-on-rodent HRP-Polymer Kit (Biocare Medical). Primary antibody labeling was detected using brown DAB substrate (Vector Laboratories, Burlingame, Calif., USA). […]

Question: With `C[C@@H](O[C@H]1OCCN(Cc2nc(=O)n(P(=O)(O)O)[nH]2)[C@H]1c1ccc(F)cc1)c1cc(C(F)(F)F)cc(C(F)(F)F)c1` [Fosaprepitant, [3-{[(2R,3S)-2-[(1R)-1-[3,5-bis(trifluoromethyl)phenyl]ethoxy]-3-(4-fluorophenyl)morpholin-4-yl]methyl}-5-oxo-2H-1,2,4-triazol-1-yl]phosphonic acid] as the molecule, how does the “PAS+ cells (goblet cells) in the cornea compared to WT” value [1] read?
Answer: Reduced number; also recorded: decrease

Question: What about the “CD3+ cells infiltrating the conjunctiva” value [2] of the same molecule?
Answer: reduced; also recorded: significantly decreased

Question: And the “CD3+ cells infiltrating the cornea” value [2]?
Answer: reduced; also recorded: significantly decreased

Question: And the “CD3+ cells infiltrating the lacrimal gland” value [2]?
Answer: reduced; also recorded: significantly decreased
